Results as given in patent US20040034006A1, “Method of inactivating viral particles in a blood product” (priority 2000, published 2004).
Values joined by “and” are separate entries in the source; they are usually repeats but may differ in a detail not shown here. Equal entries are not always repeated.

Assays:
red blood cells = experiment: in vivo survival of 51Cr-labeled RBC photodynamically treated and re-infused; conditions: one value per monkey (BB26, CO33)
S. aureus = experiment: photodynamic inactivation of bacteria with varying amounts of light; assay type: cell-based; conditions: 25 uM; dependent on amount of light (kJ/m^2); drops from 100%; FIG. 5
P. aeruginosa = experiment: as above; assay type: cell-based; conditions: 25 uM; dependent on amount of light (kJ/m^2); drops from 100%; FIG. 5

Structure (SMILES): C[n+]1ccc(-c2c3nc(c(-c4cc[n+](C)cc4)c4ccc([nH]4)c(-c4cc[n+](C)cc4)c4nc(c(-c5ccccc5)c5ccc2[nH]5)C=C4)C=C3)cc1.[Cl-].[Cl-].[Cl-] [Sylsens, mono-phenyl-tri-(N-methyl-4-pyridyl)-porphyrin chloride]
- recovery (%) of red blood cells 24 h after re-infusion (red blood cells; Treated I: re-infused immediately after treatment): 75% and 102%
- recovery (%) of red blood cells 24 h after re-infusion (red blood cells; Treated II: re-infused after 5 weeks of storage after treatment): 71% and 72%
- inactivation of bacteria, percentage remaining (S. aureus): ≤ 0.001%
- inactivation of bacteria, percentage remaining (P. aeruginosa): ≤ 0.001%
